Each structure is given as a SMILES string.

The target in the first assay is recombinant SARS-CoV-2 M^pro (Severe acute respiratory syndrome coronavirus 2 (2019-nCoV) (SARS-CoV-2), UniProt P0DTD1). Nature of the assay: Inhibition of SARS-CoV-2 M^pro enzyme activity (fluorescent substrate assay). The class given is biochemical. The following applies: inhibition of SARS-CoV-2 M^pro enzyme activity; values given in μM; read-out: IC50.
`O=C(CNC(=O)c1cnccn1)N[C@H](Cc1ccccc1)C(=O)C(=O)NCc1nccs1` [Compound 478]: the IC50 (commonly the midpoint of a concentration-inhibition curve) is 3.62 ± 0.27 µM.
As for `O=C(NCc1cscn1)C(=O)[C@@H](Cc1ccccc1)NC(=O)[C@H]1CC(F)(F)CN1C(=O)C1CCCC(F)(F)C1` (some centres unmarked) [Compound 434], the IC50 was 2.05 ± 0.02 µM.
On the same count and under the same terms, to `O=C(NCc1ccccn1)C(=O)[C@@H](Cc1ccccc1)NC(=O)C1(NC(=O)N2CCC(F)(F)CC2)CC1` [Compound 300] belongs 2.43 ± 0.04 µM; to `C[C@@H](NC(=O)C1CCC(F)(F)CC1)C(=O)N[C@H](Cc1ccccc1)C(=O)C(=O)NCc1ncccc1Cl` [Compound 341], 11.5 ± 3.79 µM.
On the same count and under the same terms, the figure for `O=C(NCc1ncno1)C(=O)[C@@H](Cc1ccccc1)NC(=O)c1ccccc1` [Compound 461] is 62.3 ± 2.07 µM.

Staying with this assay, now noted: inhibition of SARS-CoV-2 M^pro enzyme activity; values in nM; read-out: IC50.
For the compound `C[C@@H](NC(=O)C1CCCCC1)C(=O)N[C@H](Cc1ccccc1)C(=O)C(=O)NCc1ccccn1` [Compound 146], the IC50 was 0.0123 ± 0.0002 µM.
In the case of `O=C(NCc1ccccn1)C(=O)[C@@H](Cc1ccccc1)NC(=O)C1(NC(=O)C2CCC(F)(F)CC2)CC(F)(F)C1` [Compound 227], the IC50 was 0.019 ± 0.0003 µM.
As to `O=C(NCc1ccccn1)C(=O)[C@@H](Cc1ccccc1)NC(=O)[C@@H]1CCCN1C(=O)[C@@H](NC(=O)c1cnccn1)C1CCCCC1` [Compound 280], the IC50 was determined as 0.0132 ± 0.0012 µM.
For the compound `Cc1cnc(CNC(=O)C(=O)[C@@H](Cc2ccccc2)NC(=O)[C@@H](C)NC(=O)C2CCC(F)(F)CC2)s1` [Compound 356], the IC50 was determined as 0.0431 ± 0.0001 µM.
Consider `C[C@@H](NC(=O)C1CCC(F)(F)CC1)C(=O)N[C@H](Cc1ccccc1)C(=O)C(=O)NCc1cscn1` [Compound 357], for which the IC50 stood at 0.0223 ± 0.0009 µM.
In the case of `O=C(NCc1ccccn1)C(=O)[C@@H](Cc1ccccc1)NC(=O)C1(NC(=O)[C@@H]2C[C@@H]3[C@H](C2)C3(F)F)CC(F)(F)C1` [Compound 235], the IC50 was 0.0286 ± 0.0021 µM.
On to `O=C(NCc1ccccn1)C(=O)[C@@H](Cc1ccccc1)NC(=O)[C@@H](Cc1ccccc1)NC(=O)[C@H]1CC[C@H](C(F)(F)F)CC1` [Compound 216], for which the IC50 came out at 0.0163 ± 0.0004 µM.
Same read-out and setting: to `C[C@@H](NC(=O)c1cccc(F)c1)C(=O)N[C@H](Cc1ccccc1)C(=O)C(=O)NCc1ccccn1` [Compound 139] belongs 0.0243 ± 0.0023 µM; to `C[C@@H](OCc1cccc(F)c1)C(=O)N[C@H](Cc1ccccc1)C(=O)C(=O)NCc1ccccn1` [Compound 7], 0.0285 ± 0.0009 µM; to `O=C(CNC(=O)C1CC2CCC1C2)N[C@H](Cc1ccccc1)C(=O)C(=O)NCc1cscn1` (some centres unmarked) [Compound 427], 0.0209 ± 0.0004 µM.
As to `O=C(CNC(=O)c1cccc(F)c1)N[C@H](Cc1ccccc1)C(=O)C(=O)NCc1nccs1` [Compound 482], the IC50 was 0.5382 ± 0.0043 µM.
As for `C[C@@H](NC(=O)[C@H]1CC(=O)N([C@@H](C)c2ccccc2)C1)C(=O)N[C@H](Cc1ccccc1)C(=O)C(=O)NCc1ccccn1` [Compound 122], the IC50 worked out at 0.2809 ± 0.0023 µM.
Take `O=C(NCc1ccccn1)C(=O)[C@@H](Cc1ccccc1)NC(=O)C1[C@H]2CCC[C@H]2CN1C(=O)c1cc2cc(Cl)ccc2o1` (some centres unmarked) [Compound 256]: the IC50 was 0.0205 ± 0.0017 µM.
As to `O=C(CN1C(=O)CN(c2ccc(F)c(Cl)c2)C1=O)N[C@H](Cc1ccccc1)C(=O)C(=O)NCc1nccs1` [Compound 519], the IC50 came to 0.0327 ± 0.0031 µM.
`C[C@@H](NC(=O)c1ccc(F)c(S(C)(=O)=O)c1)C(=O)N[C@H](Cc1ccccc1)C(=O)C(=O)NCc1ccccn1` [Compound 103]: the IC50 amounted to 0.0288 ± 0.001 µM.
Take `O=C(NC1CCC(F)(F)CC1)NC1(C(=O)N[C@H](Cc2ccccc2)C(=O)C(=O)NCc2ccccn2)CC1` [Compound 299]: the IC50 is 0.0157 ± 0.0001 µM.
Regarding `Cc1cccnc1CNC(=O)C(=O)[C@@H](Cc1ccccc1)NC(=O)[C@@H](C)NC(=O)C1CCC(F)(F)CC1` [Compound 340], the IC50 turned out to be 0.0762 ± 0.0017 µM.
In the case of `O=C(NCc1ccccn1)C(=O)[C@@H](Cc1ccccc1)NC(=O)[C@H](NC(=O)c1ccc(F)cc1)C1CC1` [Compound 250], the IC50 came to 0.0424 ± 0.0024 µM.
Still for that read-out and setting: the figure for `O=C(NCc1ccccn1)C(=O)[C@@H](Cc1ccccc1)NC(=O)C1(NC(=O)C2CC23CCC(F)(F)CC3)CC1` (some centres unmarked) [Compound 166] is 0.0233 ± 0.0008 µM; for `CC(C)(C)C(NC(=O)C1CCC(F)(F)CC1)C(=O)N[C@H](Cc1ccccc1)C(=O)C(=O)NCc1ccccn1` (some centres unmarked) [Compound 237] it is 0.132 ± 0.0044 µM; for `C[C@@H](NC(=O)C1CC2CCC1C2)C(=O)N[C@H](Cc1ccccc1)C(=O)C(=O)NCc1nccs1` (some centres unmarked) [Compound 371] it is 0.0317 ± 0.0026 µM.
On to `C[C@@H](NC(=O)C1CCC(F)(F)CC1)C(=O)N[C@H](Cc1ccccc1)C(=O)C(=O)NCc1ccc(Cl)cn1` [Compound 120], for which the IC50 came to 0.1133 ± 0.001 µM.
With `O=C(CNC(=O)c1ccccc1F)N[C@H](Cc1ccccc1)C(=O)C(=O)NCc1nccs1` [Compound 481], the IC50 turned out to be 0.9983 ± 0.0002 µM.
For `C[C@@H](NC(=O)c1ccnc(F)c1)C(=O)N[C@H](Cc1ccccc1)C(=O)C(=O)NCc1ccccn1` [Compound 108], the IC50 worked out at 0.0664 ± 0.0012 µM.
With `O=C(Cc1noc(-c2ccc(Cl)cc2F)n1)N[C@H](Cc1ccccc1)C(=O)C(=O)NCc1nccs1` [Compound 521], the IC50 is 0.441 ± 0.0045 µM.
`C[C@@H](NC(=O)CC1CCC(F)(F)CC1)C(=O)N[C@H](Cc1ccccc1)C(=O)C(=O)NCc1nccs1` [Compound 373]: the IC50 stood at 0.016 ± 0.0008 µM.
With `O=C(CNC(=O)NC1CCC(F)(F)CC1)N[C@H](Cc1ccccc1)C(=O)C(=O)NCc1ccccn1` [Compound 305], the IC50 stood at 0.0243 ± 0.0004 µM.
Still for that read-out and setting: to `CC(C)(C(=O)N[C@H](Cc1ccccc1)C(=O)C(=O)NCc1nccs1)n1cc(-c2cccc(OC(F)(F)F)c2)cn1` [Compound 529] belongs 0.2245 ± 0.0013 µM; to `C[C@@H](OCc1ccccc1)C(=O)N[C@H](Cc1ccccc1)C(=O)C(=O)NCc1cnccn1` [Compound 27], 0.8858 ± 0.0002 µM.
In the case of `C[C@@H](OCc1ccccc1)C(=O)N[C@H](Cc1ccccc1)C(=O)C(=O)NCc1ccc(Cl)cn1` [Compound 36], the IC50 came to 0.0309 ± 0.0002 µM.
On to `O=C(NCc1ccccn1)C(=O)[C@@H](Cc1ccccc1)NC(=O)[C@@]1(NC(=O)C2CCC(F)(F)CC2)C[C@H]1C(F)F` [Compound 233], for which the IC50 came to 0.0103 ± 0.0003 µM.
On the same count and under the same terms, to `CC(C)(C(=O)N[C@H](Cc1ccccc1)C(=O)C(=O)NCc1ccccn1)n1cc(-c2ccccc2F)cn1` [Compound 328] belongs 0.0317 ± 0.0001 µM; to `O=C(CC1CCOCC1)NC1(C(=O)N[C@H](Cc2ccccc2)C(=O)C(=O)NCc2ccccn2)CCC1` [Compound 210], 0.0207 ± 0.0011 µM.
With `C[C@@H](NC(=O)C1CCC(C(F)(F)F)CC1)C(=O)N[C@H](Cc1ccccc1)C(=O)C(=O)NCc1ccccn1` (some centres unmarked) [Compound 147], the IC50 was determined as 0.013 ± 0.0007 µM.
For the compound `CC(C)(NC(=O)c1ccc(F)cc1)C(=O)N[C@H](Cc1ccccc1)C(=O)C(=O)NCc1ccccn1` [Compound 186], the IC50 was determined as 0.0186 ± 0.0011 µM.
As for `O=C(NCc1nccs1)C(=O)[C@@H](Cc1ccccc1)NC(=O)C1(NC(=O)C2CCC(F)(F)C2)CC(F)(F)C1` (some centres unmarked) [Compound 546], the IC50 was found to be 0.0717 ± 0.0071 µM.
As to `C[C@@H](NC(=O)Cc1cc(C(C)(C)C)nn1-c1ccccc1)C(=O)N[C@H](Cc1ccccc1)C(=O)C(=O)NCc1ccccn1` [Compound 64], the IC50 turned out to be 0.0161 ± 0.0002 µM.
In the case of `O=C(NCc1ccccn1)C(=O)[C@@H](Cc1ccccc1)NC(=O)C1(C(=O)Nc2ccc(F)cc2)CC1` [Compound 322], the IC50 amounted to 0.125 ± 0.006 µM.
Turning to `O=C(NCc1ccccn1)C(=O)[C@@H](Cc1ccccc1)NC(=O)[C@H]1CCCCN1C(=O)[C@@H]1C[C@@H]2[C@H](C1)C2(F)F` [Compound 286], the IC50 was 0.0163 ± 0.0015 µM.
On to `O=C(NCc1nccs1)C(=O)[C@@H](Cc1ccccc1)NC(=O)c1ccccc1F` [Compound 471], for which the IC50 was 0.264 ± 0.004 µM.
On the same count and under the same terms, to `O=C(CN1C(=O)CN(c2cc(F)cc(F)c2)C1=O)N[C@H](Cc1ccccc1)C(=O)C(=O)NCc1nccs1` [Compound 523] belongs 0.123 ± 0.0051 µM.
For `O=C(NCc1nccs1)C(=O)[C@@H](Cc1ccccc1)NC(=O)[C@H]1CC(F)(F)CN1C(=O)C1CCC(F)(F)C1` (some centres unmarked) [Compound 404], the IC50 was determined as 0.0477 ± 0.001 µM.
Same read-out and setting: to `CNC(=O)C[C@@H](NC(=O)CC1CC(F)(F)C1)C(=O)N[C@H](Cc1ccccc1)C(=O)C(=O)NCc1nccs1` [Compound 575] belongs 0.0235 ± 0.0009 µM; to `C[C@@H](NC(=O)c1cccc(OC(F)(F)F)c1)C(=O)N[C@H](Cc1ccccc1)C(=O)C(=O)NCc1ccccn1` [Compound 143], 0.0164 ± 0.0015 µM; to `CC[C@@H](NC(=O)c1ccc(F)cc1)C(=O)N[C@H](Cc1ccccc1)C(=O)C(=O)NCc1ccccn1` [Compound 246], 0.0236 ± 0.0003 µM.
Take `CC(C)(NC(=O)c1cc(Cl)cc(OC(F)(F)F)c1)C(=O)N[C@H](Cc1ccccc1)C(=O)C(=O)NCc1ccccn1` [Compound 181]: the IC50 came out at 0.0166 ± 0.0003 µM.
As to `O=C(CC1CCC(F)(F)CC1)NCC(=O)N[C@H](Cc1ccccc1)C(=O)C(=O)NCc1cscn1` [Compound 422], the IC50 amounted to 0.0171 ± 0.0001 µM.
As for `O=C(CNC(=O)C1CCC(F)(F)CC1)N[C@H](Cc1cccc(Cl)c1)C(=O)C(=O)NCc1ccccn1` [Compound 448], the IC50 came to 0.0599 ± 0.0005 µM.
As for `C[C@@H](OCc1cc(F)cc(F)c1)C(=O)N[C@H](Cc1ccccc1)C(=O)C(=O)NCc1ccccn1` [Compound 2], the IC50 amounted to 0.0176 ± 0.0004 µM.
On to `C[C@@H](OCc1ccccc1)C(=O)N[C@H](Cc1ccccc1)C(=O)C(=O)NCc1ccccn1` [Compound 1, (R)-3-((R)-2-(benzyloxy)propionamido)-2-oxo-4-phenyl-N-(pyridin-2-ylmethyl)butyramide], for which the IC50 is 0.0146 ± 0.0013 µM.
In the case of `CC(Oc1ccc(C(F)(F)F)cc1)C(=O)N[C@H](C)C(=O)N[C@H](Cc1ccccc1)C(=O)C(=O)NCc1ccccn1` (some centres unmarked) [Compound 96], the half-inhibitory concentration (IC50) came out at 0.0202 ± 0.0007 µM.
With `COc1ccc(CNC(=O)C(=O)[C@@H](Cc2ccccc2)NC(=O)[C@@H](C)NC(=O)C2CCC(F)(F)CC2)nc1` [Compound 345], the IC50 was 0.0609 ± 0.0047 µM.
Same read-out and setting: the figure for `CC(C)C(Oc1ccc(Cl)cc1)C(=O)N[C@H](C)C(=O)N[C@H](Cc1ccccc1)C(=O)C(=O)NCc1ccccn1` (some centres unmarked) [Compound 83] is 0.0067 ± 0.0001 µM; for `O=C(NCc1nccs1)C(=O)[C@@H](Cc1ccccc1)NC(=O)[C@H]1COCCN1C(=O)CC1CC(F)(F)C1` [Compound 408] it is 0.0149 ± 0.0005 µM.

The values above are taken from US20250064789A1, “KETOAMIDE DERIVATIVES AND PHARMACEUTICAL USES THEREOF” (priority 2022, published 2025).
